Laboratory results as given in US20240148821A1, “PHARMACEUTICAL USE OF CYCLIC PEPTIDE COMPOUND” (CHUGAI SEIYAKU KABUSHIKI KAISHA, priority 2021, published 2024).
Numbered stars: 1 amine (or outer) side, 2 acyl side, 3 side chain; on linkers, the order of the positions; unused ones are H or OH. Bridge positions count the residues as written; N and C are the ends. Square brackets hold non-standard residues; d marks the D form. Peptide text beside a SMILES is read from it. * marks the point of attachment. hPhe(3-Cl-4-CF3) = N[C@@H](CCc1ccc(C(F)(F)F)c(Cl)c1)C(=O)O; hPhe(3-F,4-CF3) = N[C@@H](CCc1ccc(C(F)(F)F)c(F)c1)C(=O)O; NEtPhe(4-CF3) = CCN[C@@H](Cc1ccc(C(F)(F)F)cc1)C(=O)O; hPhe(4-CF3) = N[C@@H](CCc1ccc(C(F)(F)F)cc1)C(=O)O; NMePhe(3,4-F2) = CN[C@@H](Cc1ccc(F)c(F)c1)C(=O)O; NMePhe(3-Cl) = CN[C@@H](Cc1cccc(Cl)c1)C(=O)O; NMePhe(4-Cl) = CN[C@@H](Cc1ccc(Cl)cc1)C(=O)O; NMePhe(4-Me) = CN[C@@H](Cc1ccc(C)cc1)C(=O)O; NMedβ3hAla = C[C@H](CC(=O)[*:2])N(C)[*:1]; NMeGly(cPent) = CN[C@H](C(=O)O)C1CCCC1; NMeCha = CN[C@@H](CC1CCCCC1)C(=O)O; Hyp = O=C(O)[C@@H]1C[C@@H](O)CN1; NMeAhp(2) = CCCCC[C@H](NC)C(=O)O; NMeChg = CN[C@H](C(=O)O)C1CCCCC1; NMeF = CN[C@@H](Cc1ccccc1)C(=O)O; NMeI = CC[C@H](C)[C@H](NC)C(=O)O; NMeD = CN[C@@H](CC(=O)O)C(=O)O; NMeL = CN[C@@H](CC(C)C)C(=O)O; NMeV = CN[C@H](C(=O)O)C(C)C; d(β3hA) = C[C@@H](N)CC(=O)O; Azetidin(1-yl) = C1CN(*)C1; NMeS = CN[C@@H](CO)C(=O)O; Pip = O=C(O)[C@@H]1CCCCN1; Morpholide = C1CN(*)CCO1; NMeA = CN[C@@H](C)C(=O)O; NMeAib = CNC(C)(C)C(=O)O; Piperidide = C1CCN(*)CC1; Pyrrolidide = C1CCN(*)C1; dNMeA = CN[C@H](C)C(=O)O; Ac5c = NC1(C(=O)O)CCCC1; Aze = O=C(O)[C@@H]1CCN1; Ac4c = NC1(C(=O)O)CCC1; NBuGly = CCCCNCC(=O)O; Aib = CC(C)(N)C(=O)O; Sar = CNCC(=O)O; Propyl = CCC*

target: protein-protein interaction between Kras and SOS1 (biotin-tagged human Kras loaded with GDP, His-tagged human SOS1) (Homo sapiens (Human), UniProt P01116, G12D); experiment: Protein-protein interaction inhibition between Kras and SOS1 (KrasG12D-SOS PPI) using AlphaScreen; type: biochemical; conditions: AlphaScreen; biotin-tagged human Kras loaded with GDP, His-tagged human SOS1; read-out: KRAS G12D-SOS PPI IC50;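 also: kras produced in E. coli, Ni-coupled donor beads and streptavidin acceptor beads, excitation 680 nm with emission detected at 520–620 nm via singlet oxygen transfer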

Structure (SMILES) | IC50 [µM]
CC[C@H](C)[C@@H]1NC(=O)[C@H](C)N(C)C(=O)C[C@@H](C)N(C)C(=O)[C@H](CC(C)C)NC(=O)[C@H](Cc2ccccc2)N(C)C(=O)[C@H](CC(C)C)NC(=O)[C@H](CCc2ccc(C(F)(F)F)cc2)NC(=O)CN(C)C(=O)[C@H](Cc2ccc(Cl)cc2)N(C)C(=O)CN(C)C(=O)CN(C)C1=O [Compound 214] (cyclo(I[Sar][Sar][NMePhe(4-Cl)][Sar][hPhe(4-CF3)]L[NMeF]L[NMedβ3hAla][NMeA])) | 0.28
CCCCN1CC(=O)N(C)[C@@H]([C@@H](C)CC)C(=O)N(C)[C@H](C(=O)N(C)C)CC(=O)N(C)[C@@H](CC(C)C)C(=O)N[C@@H]([C@@H](C)CC)C(=O)N(C)[C@@H](C)C(=O)N2CC[C@H]2C(=O)N(C)[C@@H](Cc2ccc(C)cc2)C(=O)N(C)CC(=O)N[C@@H](CCc2ccc(C(F)(F)F)c(Cl)c2)C(=O)N2CCC[C@H]2C1=O [Compound 215] ([NMeL]I[NMeA][Aze][NMePhe(4-Me)][Sar][hPhe(3-Cl-4-CF3)]P[NBuGly][NMeI][NMeD]-NMe2; lactam N-11) | 0.029
CC[C@H](C)[C@@H]1NC(=O)[C@H](C)N(C)C(=O)C[C@@H](C)NC(=O)[C@H](CC(C)C)N(C)C(=O)C(C)(C)NC(=O)[C@H](CC(C)C)N(C)C(=O)[C@H](CCc2ccc(C(F)(F)F)cc2)NC(=O)CN(C)C(=O)[C@H](CC2CCCCC2)N(C)C(=O)CN(C)C(=O)CN(C)C1=O [Compound 219] (cyclo([Aib][NMeL][d(β3hA)][NMeA]I[Sar][Sar][NMeCha][Sar][hPhe(4-CF3)][NMeL])) | 0.073
CC[C@H](C)[C@@H]1NC(=O)[C@H](C2CCCC2)N(C)C(=O)C[C@@H](C(=O)N2CCCCC2)N(C)C(=O)[C@H](C(C)C)N(C)C(=O)C2(CCCC2)NC(=O)[C@@H]2CCCN2C(=O)[C@H](CCc2ccc(C(F)(F)F)c(Cl)c2)NC(=O)CN(C)C(=O)[C@H](CC2CCCCC2)N(C)C(=O)[C@@H]2CCN2C(=O)[C@H](C)N(C)C1=O [Compound 225] ([NMeGly(cPent)]I[NMeA][Aze][NMeCha][Sar][hPhe(3-Cl-4-CF3)]P[Ac5c][NMeV][NMeD]-Piperidide; lactam N-11) | 0.015
CC[C@H](C)[C@@H]1NC(=O)[C@@H]2CCCCN2C(=O)C[C@@H](C)NC(=O)[C@H](CC(C)C)N(C)C(=O)C2(CCCC2)NC(=O)[C@@H]2CCCN2C(=O)[C@H](CCc2ccc(C(F)(F)F)cc2)NC(=O)CN(C)C(=O)[C@H](Cc2ccc(Cl)cc2)N(C)C(=O)CN(C)C(=O)CN(C)C1=O [Compound 227] (cyclo([Ac5c][NMeL][d(β3hA)][Pip]I[Sar][Sar][NMePhe(4-Cl)][Sar][hPhe(4-CF3)]P)) | 0.082
CCCOC[C@H]1C(=O)N(C)CC(=O)N[C@@H](CCc2ccc(C(F)(F)F)c(F)c2)C(=O)N2CCC[C@H]2C(=O)NC2(CCCC2)C(=O)N(C)[C@@H]([C@@H](C)CC)C(=O)N(C)[C@H](C(=O)N2CCCCC2)CC(=O)N(C)[C@@H](CC(C)C)C(=O)N[C@@H]([C@@H](C)CC)C(=O)N(C)[C@@H](C)C(=O)N2CC[C@H]2C(=O)N1C [Compound 236] ([NMeL]I[NMeA][Aze][NMeS](Propyl)[Sar][hPhe(3-F,4-CF3)]P[Ac5c][NMeI][NMeD]-Piperidide; lactam N-11) | 0.0085
CC[C@H](C)[C@@H]1NC(=O)[C@H](CC(C)C)N(C)C(=O)C[C@@H](C(=O)N2CCCCC2)N(C)C(=O)[C@H](C2CCCCC2)N(C)C(=O)C2(CCCC2)NC(=O)[C@@H]2CCCN2C(=O)[C@H](CCc2ccc(C(F)(F)F)c(Cl)c2)NC(=O)CN(C)C(=O)[C@H](CC2CCCCC2)N(C)C(=O)[C@@H]2CCN2C(=O)[C@H](C)N(C)C1=O [Compound 249] ([NMeL]I[NMeA][Aze][NMeCha][Sar][hPhe(3-Cl-4-CF3)]P[Ac5c][NMeChg][NMeD]-Piperidide; lactam N-11) | 0.0016
CC[C@H](C)[C@@H]1NC(=O)[C@H](CC(C)C)N(C)C(=O)C[C@@H](C(=O)N2CCC2)N(C)C(=O)[C@H](C(C)C)N(C)C(=O)C2(CCCC2)NC(=O)[C@@H]2CCCN2C(=O)[C@H](CCc2ccc(C(F)(F)F)c(Cl)c2)NC(=O)CN(C)C(=O)[C@H](CC2CCCCC2)N(C)C(=O)[C@@H]2CCN2C(=O)[C@H](C)N(C)C1=O [Compound 256] ([NMeL]I[NMeA][Aze][NMeCha][Sar][hPhe(3-Cl-4-CF3)]P[Ac5c][NMeV][NMeD]-{Azetidin(1-yl)}; lactam N-11) | 0.00098
CC[C@H](C)[C@@H]1NC(=O)[C@H](CC(C)C)N(C)C(=O)C[C@@H](C)NC(=O)[C@H](CC(C)C)N(C)C(=O)C(C)(C)NC(=O)[C@H](CC(C)C)N(C)C(=O)[C@H](CCc2ccc(C(F)(F)F)cc2)NC(=O)CN(C)C(=O)[C@H](Cc2ccc(Cl)cc2)N(C)C(=O)CN(C)C(=O)CN(C)C1=O [Compound 261] (cyclo([Aib][NMeL][d(β3hA)][NMeL]I[Sar][Sar][NMePhe(4-Cl)][Sar][hPhe(4-CF3)][NMeL])) | 0.052
CCCCC[C@H]1C(=O)N[C@@H]([C@@H](C)CC)C(=O)N[C@@H](C)C(=O)N2CC[C@H]2C(=O)N(C)[C@@H](CC2CCCCC2)C(=O)N(C)CC(=O)N[C@@H](CCc2ccc(C(F)(F)F)c(Cl)c2)C(=O)N2CCC[C@H]2C(=O)NC2(CCCC2)C(=O)N(C)[C@@H](C2CCCC2)C(=O)N(C)[C@H](C(=O)N2CCOCC2)CC(=O)N1C [Compound 263] ([NMeAhp(2)]IA[Aze][NMeCha][Sar][hPhe(3-Cl-4-CF3)]P[Ac5c][NMeGly(cPent)][NMeD]-Morpholide; lactam N-11) | 0.0029
CC[C@H](C)[C@@H]1NC(=O)[C@H](C)N(C)C(=O)C[C@@H](C)NC(=O)[C@H](CC(C)C)N(C)C(=O)[C@H](Cc2ccccc2)N(C)C(=O)[C@H](CC(C)C)NC(=O)[C@H](CCc2ccc(C(F)(F)F)cc2)NC(=O)CN(C)C(=O)[C@H](Cc2ccc(Cl)cc2)N(C)C(=O)CN(C)C(=O)CN(C)C1=O [Compound 271] (cyclo(I[Sar][Sar][NMePhe(4-Cl)][Sar][hPhe(4-CF3)]L[NMeF][NMeL][d(β3hA)][NMeA])) | 0.065
CC[C@H](C)[C@@H]1NC(=O)[C@H](C)N(C)C(=O)C[C@@H](C(=O)N2CCCCC2)N(C)C(=O)[C@H](C(C)C)N(C)C(=O)C2(CCCC2)NC(=O)[C@H](Cc2cccc(Cl)c2)N(C)C(=O)[C@H](CCc2ccc(C(F)(F)F)c(Cl)c2)NC(=O)CN(C)C(=O)[C@H](CC2CCCCC2)N(C)C(=O)CN(C)C(=O)CN(C)C1=O [Compound 282] ([NMeA]I[Sar][Sar][NMeCha][Sar][hPhe(3-Cl-4-CF3)][NMePhe(3-Cl)][Ac5c][NMeV][NMeD]-Piperidide; lactam N-11) | 0.094
CC[C@H](C)[C@@H]1NC(=O)[C@H](C)N(C)C(=O)C[C@@H](C)NC(=O)[C@H](C2CCCCC2)N(C)C(=O)C(C)(C)N(C)C(=O)[C@@H]2CCCN2C(=O)[C@H](CCc2ccc(C(F)(F)F)c(Cl)c2)NC(=O)CN(C)C(=O)[C@H](CC2CCCCC2)N(C)C(=O)[C@@H]2CCN2C(=O)[C@H](C)N(C)C1=O [Compound 291] (cyclo([Aze][NMeCha][Sar][hPhe(3-Cl-4-CF3)]P[NMeAib][NMeChg][d(β3hA)][NMeA]I[NMeA])) | 0.055
CC[C@H](C)[C@@H]1NC(=O)[C@H](CC(C)C)N(C)C(=O)C[C@@H](C(=O)N2CCCCC2)N(C)C(=O)[C@H](C2CCCCC2)N(C)C(=O)C2(CCCC2)NC(=O)[C@H](C)N(C)C(=O)[C@H](CCc2ccc(C(F)(F)F)c(Cl)c2)NC(=O)CN(C)C(=O)[C@H](CC2CCCCC2)N(C)C(=O)CN(C)C(=O)CN(C)C1=O [Compound 294] ([NMeL]I[Sar][Sar][NMeCha][Sar][hPhe(3-Cl-4-CF3)][NMeA][Ac5c][NMeChg][NMeD]-Piperidide; lactam N-11) | 0.0014
CCO[C@@H]1C[C@H]2C(=O)NC3(CCC3)C(=O)N(C)[C@@H](C3CCCCC3)C(=O)N(C)[C@H](C)CC(=O)N(C)[C@@H](CC(C)C)C(=O)N[C@@H]([C@@H](C)CC)C(=O)N(C)[C@@H](C)C(=O)N3CC[C@H]3C(=O)N(CC)[C@@H](Cc3ccc(C(F)(F)F)cc3)C(=O)N(C)CC(=O)N[C@@H](CCc3ccc(C(F)(F)F)c(Cl)c3)C(=O)N2C1 [Compound 296] (cyclo([Ac4c][NMeChg][NMedβ3hAla][NMeL]I[NMeA][Aze][NEtPhe(4-CF3)][Sar][hPhe(3-Cl-4-CF3)][Hyp](Et))) | 0.055
CC[C@H](C)[C@@H]1NC(=O)[C@H](C)N(C)C(=O)C[C@@H](C)NC(=O)[C@H](C2CCCC2)N(C)C(=O)C2(CCCC2)NC(=O)[C@@H]2CCCN2C(=O)[C@H](CCc2ccc(C(F)(F)F)c(Cl)c2)NC(=O)[C@@H](C)N(C)C(=O)[C@H](Cc2ccc(F)c(F)c2)N(C)C(=O)[C@@H]2CCN2C(=O)[C@H](C)N(C)C1=O [Compound 310] (cyclo([Ac5c][NMeGly(cPent)][d(β3hA)][NMeA]I[NMeA][Aze][NMePhe(3,4-F2)][dNMeA][hPhe(3-Cl-4-CF3)]P)) | 0.096
CC[C@H](C)[C@@H]1NC(=O)[C@H](CC(C)C)N(C)C(=O)C[C@@H](C(=O)N2CCCC2)N(C)C(=O)[C@H]([C@@H](C)CC)N(C)C(=O)C2(CCCC2)NC(=O)[C@@H]2CCCN2C(=O)[C@H](CCc2ccc(C(F)(F)F)c(F)c2)NC(=O)CN(C)C(=O)[C@H](C2CCCC2)N(C)C(=O)[C@@H]2CCN2C(=O)[C@H](C)N(C)C1=O [Compound 313] ([NMeL]I[NMeA][Aze][NMeGly(cPent)][Sar][hPhe(3-F,4-CF3)]P[Ac5c][NMeI][NMeD]-Pyrrolidide; lactam N-11) | 0.0042
CC[C@H](C)[C@@H]1NC(=O)[C@H](CC(C)C)N(C)C(=O)C[C@@H](C)N(C)C(=O)[C@H](CC(C)C)NC(=O)C(C)(C)N(C)C(=O)[C@H](CC(C)C)NC(=O)[C@H](CCc2ccc(C(F)(F)F)cc2)NC(=O)CN(C)C(=O)[C@H](Cc2ccc(Cl)cc2)N(C)C(=O)CN(C)C(=O)CN(C)C1=O [Compound 315] (cyclo(I[Sar][Sar][NMePhe(4-Cl)][Sar][hPhe(4-CF3)]L[NMeAib]L[NMedβ3hAla][NMeL])) | 0.12
